pIC50: −log10 of the molar value.
Test system: not listed separately
Experiment: Cytotoxicity against mouse L929 cells assessed as reduction in cell viability
For `COC(=O)c1cccc(COc2c(-c3ccc(OCCOCCn4cc(CCCOc5ccc(-c6cc(=O)c7ccc(F)cc7o6)cc5)nn4)cc3)oc3ccccc3c2=O)c1`, the pIC50 was less than 4.00.
For `O=c1c(OCc2ccccc2)c(-c2ccc(OCCOCCOCCn3cc(CN(Cc4ccccc4)Cc4cn(CCOCCOCCOc5ccc(-c6oc7ccccc7c(=O)c6OCc6ccccc6)cc5)nn4)nn3)cc2)oc2ccccc12`, the pIC50 was less than 4.00.
In the case of `COC(=O)c1cccc(COc2c(-c3ccc(OCCOCCn4cc(COCCOc5ccc6c(=O)cc(-c7ccccc7)oc6c5)nn4)cc3)oc3ccccc3c2=O)c1`, the pIC50 was less than 4.00.
`COC(=O)c1cccc(COc2c(-c3ccc(OCCOCCn4cc(CN5CCCN(Cc6cn(CCOCCOc7ccc(-c8oc9ccccc9c(=O)c8OCc8cccc(C(=O)OC)c8)cc7)nn6)CC5)nn4)cc3)oc3ccccc3c2=O)c1` gave a pIC50 of less than 4.00.
With `O=c1cc(-c2ccc(OCCCc3cn(CCOCCOCCOc4ccc5c(=O)cc(-c6ccccc6)oc5c4)nn3)cc2)oc2cc(F)ccc12` the pIC50 was less than 4.00.
`O=c1cc(-c2ccccc2)oc2cc(OCCCc3cn(CCOCCOCCOc4ccc(-c5oc6ccccc6c(=O)c5OCc5ccccc5)cc4)nn3)ccc12` gave a pIC50 of less than 4.00.
Compound `O=c1cc(-c2ccccc2)oc2cc(OCCCCc3cn(CCOCCOc4ccc(-c5cc(=O)c6cc(F)ccc6o5)cc4)nn3)ccc12` has a pIC50 of less than 4.00.
Compound `O=c1cc(-c2ccccc2)oc2cc(OCCCCc3cn(CCOCCOCCOc4ccc(-c5oc6ccccc6c(=O)c5OCc5ccccc5)cc4)nn3)ccc12` has a pIC50 of less than 4.00.
Compound `O=c1cc(-c2ccccc2)oc2cc(OCCOCCOCCn3cc(CN(CCOc4ccc5c(=O)cc(-c6ccccc6)oc5c4)Cc4ccccc4)nn3)ccc12` has a pIC50 of less than 4.00.
`Cc1ccc2oc(-c3ccc(OCCCCc4cn(CCOCCOCCOc5ccc(-c6cc(=O)c7ccccc7o6)cc5)nn4)cc3)cc(=O)c2c1` gave a pIC50 of less than 4.30.
Work on `Cc1ccc2oc(-c3ccc(OCCOCCOCCn4cc(CCCOc5ccc6c(=O)cc(-c7ccccc7)oc6c5)nn4)cc3)cc(=O)c2c1` yielded a pIC50 of less than 4.30.
`COC(=O)c1cccc(COc2c(-c3ccc(OCCOCCn4cc(CN(Cc5ccccc5)Cc5cn(CCOCCOc6ccc(-c7oc8ccccc8c(=O)c7OCc7cccc(C(=O)OC)c7)cc6)nn5)nn4)cc3)oc3ccccc3c2=O)c1` showed a pIC50 of less than 4.00.
In the case of `O=c1cc(-c2ccccc2)oc2cc(OCCN(Cc3ccccc3)Cc3cn(CCOCCOCCOc4ccc(-c5oc6ccccc6c(=O)c5OCc5ccccc5)cc4)nn3)ccc12`, the pIC50 was less than 4.00.
`COC(=O)c1cccc(COc2c(-c3ccc(OCCOCCn4cc(-c5ccc(-c6cn(CCOCCOc7ccc(-c8oc9ccccc9c(=O)c8OCc8cccc(C(=O)OC)c8)cc7)nn6)cc5)nn4)cc3)oc3ccccc3c2=O)c1` gave a pIC50 of less than 4.00.
With `O=c1cc(-c2ccc(OCCOCCOCCn3cc(CCCOc4ccc5c(=O)cc(-c6ccccc6)oc5c4)nn3)cc2)oc2ccccc12` the pIC50 was 4.92.
Work on `O=c1cc(-c2ccccc2)oc2cc(OCCCc3cn(CCOCCOCCOc4ccc5c(=O)cc(-c6ccccc6)oc5c4)nn3)ccc12` yielded a pIC50 of less than 4.30.
In the case of `OCCOCCn1cc(CN(Cc2ccccc2)Cc2cn(CCOCCO)nn2)nn1`, the pIC50 was less than 4.00.
Compound `COC(=O)c1cccc(COc2c(-c3ccc(OCCOCCn4cc(CN(Cc5cn(CCOCCOc6ccc(-c7oc8ccccc8c(=O)c7OCc7cccc(C(=O)OC)c7)cc6)nn5)c5ccccc5)nn4)cc3)oc3ccccc3c2=O)c1` has a pIC50 of less than 4.00.
For `O=c1cc(-c2ccccc2)oc2cc(OCCOCc3cn(CCOCCOc4ccc(-c5cc(=O)c6cc(F)ccc6o5)cc4)nn3)ccc12`, the pIC50 was less than 4.00.
Work on `O=c1cc(-c2ccccc2)oc2cc(OCCCCc3cn(CCOCCOCCOc4ccc(-c5cc(=O)c6cc(F)ccc6o5)cc4)nn3)ccc12` yielded a pIC50 of less than 4.00.
In the case of `O=c1cc(-c2ccccc2)oc2cc(OCCOCc3cn(CCOCCOCCOc4ccc(-c5cc(=O)c6cc(F)ccc6o5)cc4)nn3)ccc12`, the pIC50 was less than 4.30.
Work on `COC(=O)c1cccc(COc2c(-c3ccc(OCCOCCOCCn4cc(CCCOc5ccc(-c6cc(=O)c7ccc(F)cc7o6)cc5)nn4)cc3)oc3ccccc3c2=O)c1` yielded a pIC50 of less than 4.00.
For `COC(=O)c1cccc(COc2c(-c3ccc(OCCOCCOCCn4cc(CCCOc5ccc6c(=O)cc(-c7ccccc7)oc6c5)nn4)cc3)oc3ccccc3c2=O)c1`, the pIC50 was less than 4.00.
For `O=c1cc(-c2ccccc2)oc2cc(OCCOCCOCCn3cc(COCCOc4ccc5c(=O)cc(-c6ccccc6)oc5c4)nn3)ccc12`, the pIC50 was 4.92.
For `O=c1cc(-c2ccccc2)oc2cc(OCCOCCn3cc(COCCOc4ccc5c(=O)cc(-c6ccccc6)oc5c4)nn3)ccc12`, the pIC50 was less than 4.00.
With `O=c1cc(-c2ccccc2)oc2cc(OCCCCc3cn(CCOCCOCCOc4ccc5c(=O)cc(-c6ccccc6)oc5c4)nn3)ccc12` the pIC50 was less than 4.00.
With `O=c1cc(-c2ccccc2)oc2cc(OCCOCCn3cc(CN(Cc4ccccc4)Cc4cn(CCOCCOc5ccc6c(=O)cc(-c7ccccc7)oc6c5)nn4)nn3)ccc12` the pIC50 was less than 4.00.
`COC(=O)c1cccc(COc2c(-c3ccc(OCCOCCOCCn4cc(CCCCOc5ccc(-c6cc(=O)c7cc(C)ccc7o6)cc5)nn4)cc3)oc3ccccc3c2=O)c1` gave a pIC50 of less than 4.00.
`COC(=O)c1cccc(COc2c(-c3ccc(OCCOCCOCCn4cc(CN5CCN(Cc6cn(CCOCCOCCOc7ccc(-c8oc9ccccc9c(=O)c8OCc8cccc(C(=O)OC)c8)cc7)nn6)CC5)nn4)cc3)oc3ccccc3c2=O)c1` showed a pIC50 of less than 4.00.
`COC(=O)c1cccc(COc2c(-c3ccc(OCCOCCn4cc(CN(C)CCN(C)Cc5cn(CCOCCOc6ccc(-c7oc8ccccc8c(=O)c7OCc7cccc(C(=O)OC)c7)cc6)nn5)nn4)cc3)oc3ccccc3c2=O)c1` showed a pIC50 of less than 4.00.
With `Cc1ccc2oc(-c3ccc(OCCOCCOCCn4cc(CN(CCOc5ccc6c(=O)cc(-c7ccccc7)oc6c5)Cc5ccccc5)nn4)cc3)cc(=O)c2c1` the pIC50 was less than 4.00.
For `Cc1ccc2oc(-c3ccc(OCCCCc4cn(CCOCCOc5ccc(-c6oc7ccccc7c(=O)c6OCc6ccccc6)cc5)nn4)cc3)cc(=O)c2c1`, the pIC50 was less than 4.00.
In the case of `O=c1cc(-c2ccccc2)oc2cc(OCCOCCOCCn3cc(CN(Cc4ccccc4)Cc4cn(CCOCCOCCOc5ccc6c(=O)cc(-c7ccccc7)oc6c5)nn4)nn3)ccc12`, the pIC50 was less than 4.00.
With `COC(=O)c1cccc(COc2c(-c3ccc(OCCOCCn4cc(CCCCOc5ccc(-c6cc(=O)c7cc(C)ccc7o6)cc5)nn4)cc3)oc3ccccc3c2=O)c1` the pIC50 was less than 4.00.
Work on `COC(=O)c1cccc(COc2c(-c3ccc(OCCOCCn4cc(CN5CCN(Cc6cn(CCOCCOc7ccc(-c8oc9ccccc9c(=O)c8OCc8cccc(C(=O)OC)c8)cc7)nn6)CC5)nn4)cc3)oc3ccccc3c2=O)c1` yielded a pIC50 of less than 4.00.
`Cc1ccc2oc(-c3ccc(OCCCCc4cn(CCN(CCOc5ccc(-c6cc(=O)c7ccccc7o6)cc5)Cc5ccccc5)nn4)cc3)cc(=O)c2c1` gave a pIC50 of less than 4.00.
Compound `Cc1ccc2oc(-c3ccc(OCCOCCOCCn4cc(CCCCOc5ccc6c(=O)cc(-c7ccccc7)oc6c5)nn4)cc3)cc(=O)c2c1` has a pIC50 of less than 4.30.
`Cc1ccc2oc(-c3ccc(OCCOCCOCCOCCOCCOc4ccc(-c5cc(=O)c6cc(C)ccc6o5)cc4)cc3)cc(=O)c2c1` gave a pIC50 of less than 4.00.
`O=c1cc(-c2ccccc2)oc2cc(OCCn3cc(CN(Cc4ccccc4)Cc4cn(CCOc5ccc6c(=O)cc(-c7ccccc7)oc6c5)nn4)nn3)ccc12` gave a pIC50 of less than 4.00.
For `Cc1ccc2oc(-c3ccc(OCCCCc4cn(CCOCCOCCOc5ccc6c(=O)cc(-c7ccccc7)oc6c5)nn4)cc3)cc(=O)c2c1`, the pIC50 was less than 4.00.
`Cc1ccc2oc(-c3ccc(OCCCCc4cn(CCOCCOCCOc5ccc(-c6oc7ccccc7c(=O)c6OCc6ccccc6)cc5)nn4)cc3)cc(=O)c2c1` gave a pIC50 of less than 4.00.
`COC(=O)c1cccc(COc2c(-c3ccc(OCCOCCn4cc(CCCOc5ccc6c(=O)cc(-c7ccccc7)oc6c5)nn4)cc3)oc3ccccc3c2=O)c1` gave a pIC50 of less than 4.00.
Compound `O=c1cc(-c2ccccc2)oc2cc(OCCCCc3cn(CCOCCOc4ccc(-c5oc6ccccc6c(=O)c5OCc5ccccc5)cc4)nn3)ccc12` has a pIC50 of less than 4.00.
`Cc1ccc2oc(-c3ccc(OCCOCCOCCn4cc(CN(Cc5ccccc5)Cc5cn(CCOCCOCCOc6ccc(-c7cc(=O)c8cc(C)ccc8o7)cc6)nn5)nn4)cc3)cc(=O)c2c1` showed a pIC50 of less than 4.00.
For `Cc1ccc2oc(-c3ccc(OCCOCCOCCn4cc(COCCOc5ccc6c(=O)cc(-c7ccccc7)oc6c5)nn4)cc3)cc(=O)c2c1`, the pIC50 was less than 4.00.
`COC(=O)c1cccc(COc2c(-c3ccc(OCCOCCn4cc(CCCCOc5ccc6c(=O)cc(-c7ccccc7)oc6c5)nn4)cc3)oc3ccccc3c2=O)c1` gave a pIC50 of less than 4.00.
In the case of `O=c1cc(-c2ccc(OCCOCCOCCn3cc(CCCCOc4ccc5c(=O)cc(-c6ccccc6)oc5c4)nn3)cc2)oc2ccccc12`, the pIC50 was less than 4.30.
Work on `O=c1cc(-c2ccc(OCCOCCOCCn3cc(COCCOc4ccc5c(=O)cc(-c6ccccc6)oc5c4)nn3)cc2)oc2ccccc12` yielded a pIC50 of 4.66.
With `Cc1ccc2oc(-c3ccc(OCCCCc4cn(CCOc5ccc6c(=O)cc(-c7ccccc7)oc6c5)nn4)cc3)cc(=O)c2c1` the pIC50 was 5.04.
Compound `COC(=O)c1cccc(COc2c(-c3ccc(OCCOCCOCCn4cc(COCCOc5ccc6c(=O)cc(-c7ccccc7)oc6c5)nn4)cc3)oc3ccccc3c2=O)c1` has a pIC50 of less than 4.00.
For `COC(=O)c1cccc(COc2c(-c3ccc(OCCOCCn4cc(CN(Cc5ccncc5)Cc5cn(CCOCCOc6ccc(-c7oc8ccccc8c(=O)c7OCc7cccc(C(=O)OC)c7)cc6)nn5)nn4)cc3)oc3ccccc3c2=O)c1`, the pIC50 was less than 4.30.
`O=c1cc(-c2ccccc2)oc2cc(OCCN(Cc3ccccc3)Cc3cn(CCOc4ccc5c(=O)cc(-c6ccccc6)oc5c4)nn3)ccc12` gave a pIC50 of less than 4.00.
For `O=c1cc(-c2ccc(OCCCc3cn(CCOCCOCCOc4ccc(-c5oc6ccccc6c(=O)c5OCc5ccccc5)cc4)nn3)cc2)oc2cc(F)ccc12`, the pIC50 was less than 4.00.
Work on `O=c1cc(-c2ccccc2)oc2cc(OCCOCc3cn(CCOCCOc4ccc(-c5oc6ccccc6c(=O)c5OCc5ccccc5)cc4)nn3)ccc12` yielded a pIC50 of less than 4.00.
With `COC(=O)c1cccc(COc2c(-c3ccc(OCCOCCOCCn4cc(CCCCOc5ccc6c(=O)cc(-c7ccccc7)oc6c5)nn4)cc3)oc3ccccc3c2=O)c1` the pIC50 was less than 4.00.
With `O=c1cc(-c2ccc(OCCOCCn3cc(CN(Cc4ccccc4)Cc4cn(CCOCCOc5ccc(-c6cc(=O)c7ccccc7o6)cc5)nn4)nn3)cc2)oc2ccccc12` the pIC50 was less than 4.00.
`Cc1ccc2oc(-c3ccc(OCCCCc4cn(CCN(CCOc5ccc6c(=O)cc(-c7ccccc7)oc6c5)Cc5ccccc5)nn4)cc3)cc(=O)c2c1` showed a pIC50 of less than 4.00.
`O=c1cc(-c2ccccc2)oc2cc(OCCCCc3cn(CCOCCOc4ccc5c(=O)cc(-c6ccccc6)oc5c4)nn3)ccc12` gave a pIC50 of less than 4.00.

Test system: HFF-1
Experiment: Cytotoxicity against human HFF1 cells assessed as reduction in cell viability
Type: cell-based
Compound `COC(=O)c1cccc(COc2c(-c3ccc(OCCOCCn4cc(CN(Cc5ccccc5)Cc5cn(CCOCCOc6ccc(-c7oc8ccccc8c(=O)c7OCc7cccc(C(=O)OC)c7)cc6)nn5)nn4)cc3)oc3ccccc3c2=O)c1` has a pIC50 of less than 4.00.
`COC(=O)c1cccc(COc2c(-c3ccc(OCCOCCn4cc(CN(Cc5cn(CCOCCOc6ccc(-c7oc8ccccc8c(=O)c7OCc7cccc(C(=O)OC)c7)cc6)nn5)c5ccccc5)nn4)cc3)oc3ccccc3c2=O)c1` showed a pIC50 of less than 4.00.

Test system: NIH3T3
Experiment: Cytotoxicity against mouse 3T3 cells assessed as reduction in cell viability
Type: cell-based
Compound `COC(=O)c1cccc(COc2c(-c3ccc(OCCOCCn4cc(CN(Cc5ccccc5)Cc5cn(CCOCCOc6ccc(-c7oc8ccccc8c(=O)c7OCc7cccc(C(=O)OC)c7)cc6)nn5)nn4)cc3)oc3ccccc3c2=O)c1` has a pIC50 of less than 4.00.
In the case of `COC(=O)c1cccc(COc2c(-c3ccc(OCCOCCn4cc(CN(Cc5cn(CCOCCOc6ccc(-c7oc8ccccc8c(=O)c7OCc7cccc(C(=O)OC)c7)cc6)nn5)c5ccccc5)nn4)cc3)oc3ccccc3c2=O)c1`, the pIC50 was less than 4.00.

— ChEMBL document CHEMBL4321806 (J Med Chem, 2019)
